The target in the test is T1, bfAANATα (Branchiostoma floridae, UniProt B9TUB5).
T1 construct: gene AANATalpha; full-length cDNA clone from B. floridae head, GST fusion (pGEX 4T-1), E. coli BL21Gold(DE3) pLysS
T1 sequence (B9TUB5 1-247): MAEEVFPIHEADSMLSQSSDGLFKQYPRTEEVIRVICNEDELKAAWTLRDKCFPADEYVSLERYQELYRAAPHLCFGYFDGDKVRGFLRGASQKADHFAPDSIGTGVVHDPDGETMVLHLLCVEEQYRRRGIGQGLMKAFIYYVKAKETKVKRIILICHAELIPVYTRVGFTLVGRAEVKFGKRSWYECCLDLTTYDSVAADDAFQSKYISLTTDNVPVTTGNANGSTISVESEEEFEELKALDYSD
As to the kind of experiment: acetyltransferase activity assay, recombinant GST fusion; also displaces CoA-HNE. The format is biochemical.

In the case of `CC(C)(CO[P@@](=O)(O)O[P@@](=O)(O)OC[C@H]1O[C@@H](n2cnc3c(N)ncnc32)[C@H](O)[C@@H]1OP(=O)(O)O)[C@@H](O)C(=O)NCCC(=O)NCCSCC(=O)NCCc1c[nH]c2ccccc12` [CoA-T], the IC50 (in general, the concentration that inhibits the measured activity by half) was determined as 3 µM.

The values above are taken from article PMC2897805, “Evolution of AANAT: expansion of the gene family in the cephalochordate amphioxus” (2010).
